How the values were obtained:
[1] = test system: Puccinia recondita f. sp. tritici; test: Test I: wheat leaf rust, preventive spray on wheat seedlings, visual disease rating; conditions: for Test I rating (% disease control) / Test I disease control rating: wheat leaf rust, 100 = 100% disease control; for Test I disease control rating: sprayed the day before inoculation, 0 = no disease control relative to controls; for pest or weed control at 200 µg/mL: 192 h, read-out: Test I rating (% disease control)
From the text: (§1) General protocol for preparing test suspensions for Tests A-J: the test compounds were first dissolved in acetone in an amount equal to 3% of the final volume and then suspended at the desired concentration (in ppm) in acetone and purified water (50/50 mix by volume) containing 250 ppm of the surfactant Trem® 014 (polyhydric alcohol esters). The resulting test suspensions were then used in Tests A-J. Spraying a 200 ppm test suspension to the point of run-off on the test plants was the equivalent of a rate of 500 g/ha. Unless otherwise indicated, the rating values indicate a 200 ppm test suspension was used. (An asterisk “*” next to the rating value indicates a 40 ppm test suspension was used.)
The test suspension was sprayed to the point of run-off on wheat seedlings. The following day the seedlings were inoculated with a spore suspension of Puccinia recondita f. sp. tritici (the causal agent of wheat leaf rust) and incubated in a saturated atmosphere at 20° C. for 24 h, and then moved to a growth chamber at 20° C. for 7 days, after which time visual disease ratings were made
A dash (-) indicates no test results.

Botrytis cinerea = test: Test B: tomato Botrytis, preventive spray on tomato seedlings, visual disease rating; conditions: for Test B rating (% disease control) / Test B disease control rating: tomato Botrytis, 100 = 100% disease control; for Test B disease control rating: 0 = no disease control relative to controls; for pest or weed control at 200 µg/mL: Botrytis cinerea, in Solanum lycopersicum, 120 h, read-out: Test B rating (% disease control)
From the text: as §1
The test suspension was sprayed to the point of run-off on tomato seedlings. The following day the seedlings were inoculated with a spore suspension of Botrytis cinerea (the causal agent of tomato Botrytis) and incubated in saturated atmosphere at 20° C. for 48 h, and then moved to a growth chamber at 24° C. for 3 additional days, after which time visual disease ratings were made.

Septoria tritici = test: Test G: wheat leaf blotch, preventive spray on wheat seedlings, visual disease rating; conditions: for Test G rating (% disease control) / Test G disease control rating: wheat leaf blotch, 100 = 100% disease control; for Test G disease control rating: sprayed the day before inoculation, 0 = no disease control relative to controls; for pest or weed control at 200 µg/mL: Zymoseptoria tritici, in Triticum aestivum, 504 h, read-out: Test G rating (% disease control)
Alternaria solani = test: Test C: tomato early blight, preventive spray on tomato seedlings, visual disease rating; conditions: for Test C rating (% disease control) / Test C disease control rating: tomato early blight, 100 = 100% disease control; for Test C disease control rating: 0 = no disease control relative to controls; for pest or weed control at 200 µg/mL: Alternaria solani, in Solanum lycopersicum, 168 h, read-out: Test C rating (% disease control)
[2] = test system: Erysiphe graminis f sp. tritici; test: Test J: wheat powdery mildew, preventive spray on wheat seedlings, visual disease rating; conditions: for Test J rating (% disease control) / Test J disease control rating: wheat powdery mildew, 100 = 100% disease control; for Test J disease control rating: sprayed the day before inoculation, 0 = no disease control relative to controls; for pest or weed control at 200 µg/mL: Blumeria graminis, in Triticum aestivum, 192 h, read-out: Test J rating (% disease control)
Septoria nodorum = test: Test F: Septoria glume blotch, preventive spray on wheat seedlings, visual disease rating; conditions: for Test F rating (% disease control) / Test F disease control rating: 100 = 100% disease control; for Test F disease control rating: 0 = no disease control relative to controls; for pest or weed control at 200 µg/mL: Parastagonospora nodorum, in Triticum aestivum, 192 h, read-out: Test F rating (% disease control)
[3] = test system: Puccinia recondita f. sp. tritici; test: Test H: wheat leaf rust, curative spray on inoculated wheat seedlings, visual disease rating; conditions: for Test H rating (% disease control) / Test H disease control rating: wheat leaf rust, 100 = 100% disease control; for Test H disease control rating: sprayed after inoculation, 0 = no disease control relative to controls; for pest or weed control at 200 µg/mL: 144 h, read-out: Test H rating (% disease control)
[4] = preventive spray, 0 = no control
[5] = Septoria glume blotch on wheat, preventive spray, 0 = no control
[6] = preventive, 0 = no control relative to controls
[7] = 0 = no control relative to controls
[8] = Septoria glume blotch, 0 = no control relative to controls
[9] = curative, 0 = no control relative to controls

SMILES	Test I rating (% disease control) [1, 6] [%]	Test B rating (% disease control) (Botrytis cinerea; [7]) [%]	Test G rating (% disease control) (Septoria tritici; [7]) [%]	Test C rating (% disease control) (Alternaria solani; [7]) [%]	Test J rating (% disease control) [2, 7] [%]	Test F rating (% disease control) (Septoria nodorum; [8]) [%]	Test H rating (% disease control) [3, 9] [%]	further results
Cc1nn(C)c(Nc2cccc(Cl)c2)c1-c1c(F)cc(C#N)cc1F [compound 115]								Test I rating (% disease control) [1, 4]: 91%; Test B rating (% disease control) (Botrytis cinerea; [4]): 99%; Test G rating (% disease control) (Septoria tritici; [4]): 100%; Test C rating (% disease control) (Alternaria solani; [4]): 0%; Test J rating (% disease control) [2, 4]: 0%; Test F rating (% disease control) (Septoria nodorum; [5]): 0%; Test H rating (% disease control) ([3]; curative spray, 0 = no control): 0%
Cc1nn(C)c(Nc2ncc(F)cc2F)c1-c1ccc(F)cc1Cl [compound 154]	100	99	100	99	100	97	41	
Cc1nn(C)c(Nc2ccc(F)cc2Br)c1-c1ccc(F)cc1Br [compound 313]								Test I disease control rating [1]: 100%; Test B disease control rating (Botrytis cinerea): 100%; Test G disease control rating (Septoria tritici): 100%; Test C disease control rating (Alternaria solani): 97%; Test J disease control rating [2]: 100%; Test F disease control rating (Septoria nodorum; Septoria glume blotch on wheat): 51%; Test H disease control rating [3]: 91%
Cc1nn(C)c(Nc2c(F)cc(F)cc2Cl)c1-c1c(F)cccc1F [Compound 297, N-(2-chloro-4,6-difluorophenyl)-4-(2,6-difluorophenyl)-1,3-dimethyl-1H-pyrazol-5-amine]								pest or weed control at 200 µg/mL [1]: 100%; pest or weed control at 200 µg/mL (Botrytis cinerea): 100%; pest or weed control at 200 µg/mL (Septoria tritici): 100%; pest or weed control at 200 µg/mL (Alternaria solani): 99%; pest or weed control at 200 µg/mL [2]: 100%; pest or weed control at 200 µg/mL (Septoria nodorum): 90%; pest or weed control at 200 µg/mL [3]: 0%
Cc1ccc(-c2c(C)nn(C)c2Oc2ccc([N+](=O)[O-])cc2Cl)cc1 [compound 52]								Test I rating (% disease control) [1, 4]: 92%; Test B rating (% disease control) (Botrytis cinerea; [4]): 54%; Test G rating (% disease control) (Septoria tritici; [4]): 97%; Test C rating (% disease control) (Alternaria solani; [4]): 0%; Test J rating (% disease control) [2, 4]: 64%; Test F rating (% disease control) (Septoria nodorum; [5]): 0%; Test H rating (% disease control) ([3]; curative spray, 0 = no control): 0%
Cc1nn(C)c(Oc2ccc(C#N)c(C#N)c2)c1-c1c(F)cc(F)cc1F [compound 169]	0	24	85	0	0	0	0	
Cc1nn(C)c(Nc2ncc(Cl)cc2Cl)c1-c1ccccc1C(F)(F)F [compound 251]	86	99	98	0	100	0	0	
Cc1nn(C)c(Nc2ncccc2Cl)c1-c1c(F)cc(F)cc1F [compound 241]	100	99	100	99	100	0	97	
COc1cc(F)c(-c2c(C)nn(C)c2Nc2ccc(Cl)cc2)c(F)c1 [Compound 22, N-(4-chlorophenyl)-4-(2,6-difluoro-4-methoxyphenyl)-1,3-dimethyl-1H-pyrazol-5-amine]								pest or weed control at 200 µg/mL [1]: 94%; pest or weed control at 200 µg/mL (Botrytis cinerea): 90%; pest or weed control at 200 µg/mL (Septoria tritici): 94%; pest or weed control at 200 µg/mL (Alternaria solani): 85%; pest or weed control at 200 µg/mL [2]: 100%; pest or weed control at 200 µg/mL (Septoria nodorum): 90%; pest or weed control at 200 µg/mL [3]: 9%
Cc1nn(C)c(Nc2ccc(F)cc2Cl)c1-c1c(F)cccc1C(F)(F)F [compound 253]	0	99	0	0	76	0	0	
COc1cc(Oc2c(-c3c(F)cc(F)cc3F)c(C)nn2C)ccc1Br [compound 166]	68	0	97	0	96	0	0	
Cc1nn(C)c(Nc2ccc(F)cc2F)c1-c1ccccc1F [compound 181]	60	94	100	44	98	0	0	
Cc1nn(C)c(Nc2ccc(C#N)cc2F)c1-c1ccc(F)cc1F [compound 246]	80	99	100	51	100	0	0	
COc1ccc(-c2c(C)nn(C)c2Oc2ccc(C#N)cc2F)c(Cl)c1 [compound 310]								Test I disease control rating [1]: 99%; Test B disease control rating (Botrytis cinerea): 100%; Test G disease control rating (Septoria tritici): 100%; Test C disease control rating (Alternaria solani): 99%; Test J disease control rating [2]: 96%; Test F disease control rating (Septoria nodorum; Septoria glume blotch on wheat): 99%; Test H disease control rating [3]: 0%
Cc1nn(C)c(Nc2ccc(F)cc2F)c1-c1c(F)cc(O)cc1F [compound 103]								Test I rating (% disease control) [1, 4]: 91%; Test B rating (% disease control) (Botrytis cinerea; [4]): 100%; Test G rating (% disease control) (Septoria tritici; [4]): 95%; Test C rating (% disease control) (Alternaria solani; [4]): 64%; Test J rating (% disease control) [2, 4]: 0%; Test F rating (% disease control) (Septoria nodorum; [5]): 0%; Test H rating (% disease control) ([3]; curative spray, 0 = no control): 0%
Cc1nn(C)c(Nc2ccc(F)cc2)c1-c1c(F)cccc1C(F)(F)F [compound 254]	0	100	84	0	64	0	0	
COc1cc(F)c(-c2c(C)nn(C)c2Nc2c(F)cc(C#N)cc2F)c(F)c1 [compound 82]								Test I rating (% disease control) [1, 4]: 68%; Test B rating (% disease control) (Botrytis cinerea; [4]): 100%; Test G rating (% disease control) (Septoria tritici; [4]): 99%; Test C rating (% disease control) (Alternaria solani; [4]): 100%; Test J rating (% disease control) [2, 4]: 13%; Test F rating (% disease control) (Septoria nodorum; [5]): 40%; Test H rating (% disease control) ([3]; curative spray, 0 = no control): 0%
COc1cc(F)c(Nc2c(-c3c(F)cccc3Cl)c(C)nn2C)c(F)c1 [compound 190]	100	99	100	99	99	80	94	
Cc1nn(C)c(Nc2ccc(F)cc2F)c1-c1c(F)cccc1C(F)(F)F [compound 255]	0	100	0	0	39	0	0	
Cc1nn(C)c(Nc2ccc(F)cc2F)c1-c1cccc(F)c1F [compound 202]	28	99	99	0	99	0	0	
Cc1nn(C)c(Nc2ccc(F)cc2F)c1-c1ccccc1Cl [compound 315]								Test I disease control rating [1]: 96%; Test B disease control rating (Botrytis cinerea): 99%; Test G disease control rating (Septoria tritici): 100%; Test C disease control rating (Alternaria solani): 99%; Test J disease control rating [2]: 100%; Test F disease control rating (Septoria nodorum; Septoria glume blotch on wheat): 0%; Test H disease control rating [3]: 0%

Reference: patent US10448639B2, “Fungicidal pyrazoles” (FMC CORPORATION, priority 2009, dated 2019)
